Laboratory results published in patent US20260306495A1, “COMBINATION OF CAPIVASERTIB, A CDK4/6 INHIBITOR AND FULVESTRANT FOR USE IN THE TREATMENT OF BREAST CANCER” (AstraZeneca AB, priority 2023, published 2026).
Values belong to the compound of their own block, whether it stands above or below them.

Tests used:
[1] = Pharmacokinetics, ribociclib triplet (preliminary modelling from clinical data); format: in vivo, human; conditions: for Increase of capivasertib AUC vs historical monotherapy data: preliminary modelling from clinical data
Protocol: In the open-label Phase Ib part of the study: • The initial palbociclib cohort will receive capivasertib (320 mg oral twice daily, 4 days on and 3 days off for 4 weeks), palbociclib (125 mg, oral once daily, dosed continually for 21 days out of 28 days), and fulvestrant (500 mg intramuscular injection [IM] monthly [Day 1 of a 28-day cycle] with a loading dose of 500 mg 2 weeks after the first dose). • The initial ribociclib cohort will explore the combination of capivasertib (400 mg oral twice daily, 4 days on and 3 days off for 4 weeks), ribociclib (400 mg, oral once daily, dosed continually for 21 days out of 28 days), and fulvestrant (500 mg IM monthly [Day 1 of a 28-day cycle] with a loading dose of 500 mg 2 weeks after the first dose). • The initial abemaciclib cohort will explore the combination of capivasertib (400 mg oral twice daily, 4 days on and 3 days off for 4 weeks), abemaciclib (100 mg, oral twice daily, 28 days out of 28 days), and fulvestrant (500 mg IM monthly [Day 1 of a 28-day cycle] with a loading dose of 500 mg 2 weeks after the first dose). […]

Japanese participants = test: DLTs, Japanese participants; format: in vivo, human (Japanese); conditions: capivasertib + palbociclib 125 mg + fulvestrant
From the text: (§1) For the Phase Ib part of the study, participants must be eligible for fulvestrant therapy and at least one of the following: palbociclib, ribociclib, or abemaciclib, as per local investigator assessment. Participants who received treatment with at least one prior endocrine therapy (alone or in combination) for ABC and a maximum of 2 lines prior chemotherapy (for global participants) or up to 1 prior line of chemotherapy (for Japanese participants) are eligible. […]

[2] = tested on: participants with locally advanced (inoperable) or metastatic HR+/HER2− breast cancer; test: Dose-limiting toxicities (DLTs), CAPItello-292 Phase Ib, palbociclib triplet; format: in vivo, human; conditions: triplet with capivasertib and fulvestrant
From the text: The Phase Ib part of the study consists of an open-label, 3-arm dose finding phase to determine the safe and well tolerated doses and schedules (RP3D) of capivasertib plus CDK4/6i (palbociclib, ribociclib, or abemaciclib) and fulvestrant (the latter administered at fixed dose and schedule, as per label) as triplet combinations in participants with ABC. The maximum tolerated doses (MTD) may also be determined. […]

[3] = Pharmacokinetics, palbociclib triplet, CAPItello-292 Phase Ib; format: in vivo, human
Protocol: In the open-label Phase Ib part of the study: • The initial palbociclib cohort will receive capivasertib (320 mg oral twice daily, 4 days on and 3 days off for 4 weeks), palbociclib (125 mg, oral once daily, dosed continually for 21 days out of 28 days), and fulvestrant (500 mg intramuscular injection [IM] monthly [Day 1 of a 28-day cycle] with a loading dose of 500 mg 2 weeks after the first dose). • The initial ribociclib cohort will explore the combination of capivasertib (400 mg oral twice daily, 4 days on and 3 days off for 4 weeks), ribociclib (400 mg, oral once daily, dosed continually for 21 days out of 28 days), and fulvestrant (500 mg IM monthly [Day 1 of a 28-day cycle] with a loading dose of 500 mg 2 weeks after the first dose). • The initial abemaciclib cohort will explore the combination of capivasertib (400 mg oral twice daily, 4 days on and 3 days off for 4 weeks), abemaciclib (100 mg, oral twice daily, 28 days out of 28 days), and fulvestrant (500 mg IM monthly [Day 1 of a 28-day cycle] with a loading dose of 500 mg 2 weeks after the first dose).
At the time of data cut-off of 31 Oct. 2022, 39 patients had been treated with capivasertib in combination with palbociclib and fulvestrant across three dose levels. Dose 1 opened first; dose levels 2 and 3 opened simultaneously: • Dose level 1: capivasertib 320 mg+palbociclib 125 mg+fulvestrant 500 mg • Dose level 2: capivasertib 400 mg+palbociclib 100 mg+fulvestrant 500 mg • Dose level 3: capivasertib 400 mg+palbociclib 125 mg+fulvestrant 500 mg

[4] = Yu Y, et al. J Clin Pharmacol 2017; 57 (2): 173-184; cited from earlier work
[5] = Pharmacokinetics, Japanese participants; format: in vivo, human (Japanese); conditions: 100 mg oral (Japanese) vs 125 mg oral (rest of the world), with capivasertib 400 mg; preliminary limited data
From the text: as §1

Ribociclib exposure vs published population PK model ([1]; with capivasertib, consistent with DDI predictions based on capivasertib as a weak CYP3A inhibitor): generally within model predictions
SMILES: CN(C)C(=O)c1cc2cnc(Nc3ccc(N4CCNCC4)cn3)nc2n1C1CCCC1 [ribociclib, 7-cyclopentyl-N,N-dimethyl-2-{[5-(1-piperazinyl)-2-pyridinyl]amino}-7H-pyrrolo[2,3-d]pyrimidine-6-carboxamide]

SMILES: CC(=O)c1c(C)c2cnc(Nc3ccc(N4CCNCC4)cn3)nc2n(C2CCCC2)c1=O [palbociclib, 6-acetyl-8-cyclopentyl-5-methyl-2-{[5-(1-piperazinyl)-2-pyridinyl]amino}pyrido[2,3-d]pyrimidin-7 (8H)-one]
Incidence of DLTs (febrile neutropenia) (Japanese participants): led to palbociclib dose de-escalation from 125 mg to 100 mg
Cause of the most frequent DLT (neutropenia/neutrophil count decreased) [2]: driven by palbociclib
Palbociclib AUC accumulation, Day 11/Day 1 ratio ([3]; Cycle 1 Day 11 / Cycle 0 Day 1, with capivasertib and fulvestrant, 90% CI): 2.89 (90% CI 2.64-3.15)
Palbociclib AUC accumulation, Day 14/Day 1 ratio ([3]; Cycle 1 Day 14 / Cycle 0 Day 1, with capivasertib and fulvestrant, 90% CI): 2.77 (90% CI 2.54-3.03)
Increase of palbociclib area under curve (AUC) by capivasertib ([3]; based on observed and expected accumulation from Cycle 0, Day 1 to Cycle 1, Day 11 and Day 14): approximately 20%
Palbociclib expected accumulation ratio [4]: 2.4
Mean palbociclib plasma exposure, Japanese participants vs rest of the world [5]: roughly similar

Increase of capivasertib AUC vs historical monotherapy data ([1]; with ribociclib 400 mg, 95% CI 1% to 43%): 19%
Increase of capivasertib AUC vs historical monotherapy data ([1]; with ribociclib 600 mg, 95% CI 0% to 34%): 16%
SMILES: NC1(C(=O)N[C@@H](CCO)c2ccc(Cl)cc2)CCN(c2ncnc3[nH]ccc23)CC1 [capivasertib, (S)-4-amino-N-(1-(4-chlorophenyl)-3-hydroxypropyl)-1-(7H-pyrrolo[2,3-d]pyrimidin-4-yl) piperidine-4-carboxamide]
PK of capivasertib versus previous monotherapy data ([3]; in combination with palbociclib and fulvestrant): consistent with previous monotherapy data
